Laboratory results taken from PubChem BioAssay (NCI).
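How tested: cells in 96-well plates exposed to compound for 48 hours at five concentrations. At the TGI there is no net growth.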

Columns and labels:
Assay in all cases: NCI-60 cell line screen, 48 h
[1] = system: A549 NSCLC
[2] = system: CAKI-1 renal
[3] = system: DU-145 prostate
[4] = system: HCC-2998 colon
[5] = system: HL-60(TB) leukemia
[6] = system: HOP-62 NSCLC
[7] = system: HS 578T breast
[8] = system: M14 melanoma
[9] = system: MALME-3M melanoma
[10] = system: MDA-N
[11] = system: OVCAR-3 ovarian
[12] = system: RXF 393 renal
[13] = system: SK-MEL-28 melanoma
[14] = system: SN12C renal
[15] = system: SNB-75 CNS
[16] = system: SW-620 colon
[17] = system: T-47D breast
[18] = system: UACC-257 melanoma
[19] = system: LOX IMVI melanoma
[20] = system: HOP-92 NSCLC

Measured: TGI

CCCCSC1=N/C(=C\c2ccco2)C(Cl)=N1
not listed: [19] | [20]
> 100 µM: all other assays above

CC(=O)N(CCc1ccccc1)C(C#N)c1ccccc1 (configuration not stated)
not listed: [13] | [20]
> 100 µM: all other assays above

CCOC(=O)C1(C/C=C/CBr)CCc2ccccc2C1=O (configuration not stated)
30.6 µM: [1]
> 100 µM: [5]
94.4 µM: [7]
28.8 µM: [2]
34.8 µM: [14] | [17] | [18]
30.3 µM: [6] | [10] | [16]
18.4 µM: [12]
26.9 µM: [3]
27.5 µM: [19]
22.6 µM: [15]
28.2 µM: [8]
41.3 µM: [9]
35.6 µM: [13]

Fc1ccc(C(=C2CCN(CCc3ccc4[nH]c(=S)[nH]c4c3)CC2)c2ccc(F)cc2)cc1
38.6 µM: [6]
8.91 µM: [3]
39.9 µM: [19]
4.23 µM: [11]
3.49 µM: [12]
4.1 µM: [17]
> 100 µM: [16]
28.6 µM: [2]
40.8 µM: [7]
4.63 µM: [5]
2.4 µM: [18]
2.63 µM: [13]
7.31 µM: [15]
9.25 µM: [14]
2.9 µM: [8]
4.81 µM: [10]
> 40.5 µM: [1]
3.89 µM: [9]
8.51 µM: [20]

COC(=O)C1(C(=O)OC)C/C(C)=C(/C)SCCCS1
not listed: [5]
> 100 µM: all other assays above

C#CC(C)(C)OC(=O)C(=[N+]=[N-])C(C)=O
not listed: [2]
> 10 µM: all other assays above

CC(C)(C)OC(=O)NC(Cc1ccc(OC(C)(C)C)cc1)C(=O)N[C@H]1CCC[C@H]1C(=O)NC(Cc1ccccc1)C(=O)N1CCCC1C(N)=O (some centres not stated)
not listed: [5]
> 100 µM: all other assays above

O=C(/C=C/c1ccc(OCc2cccc(Cl)c2)cc1)NO
24.4 µM: [19]
35.9 µM: [5]
34.2 µM: [2]
31 µM: [4]
33.8 µM: [20]
49.4 µM: [14]
44.5 µM: [10]
51.2 µM: [1]
36.7 µM: [17]
42.4 µM: [12]
40.8 µM: [3]
not listed: [9]
> 100 µM: all other assays above

COc1ccc(C2OC(N)=C(C#N)C3=C2CCCC3C)cc1OC (configuration not stated)
not listed: [1] | [4] | [6] | [20]
> 100 µM: all other assays above

[N-]=[N+]=Nc1cc(=O)n2c3c(cccc13)CCC2
not listed: [2]
> 100 µM: all other assays above

COc1ccc2[nH]c3c(c2c1)CC(=S)N1CCCC(CC3=O)C1 (configuration not stated)
81 µM: [12]
not listed: [5] | [19]
> 100 µM: all other assays above

CC(C)N(C(=O)C1(O)c2ccccc2C=Cc2ccccc21)C(C)C
48.3 µM: [1]
40.1 µM: [8]
31.5 µM: [9]
33.1 µM: [3]
31.4 µM: [13] | [14]
37.1 µM: [17]
35.6 µM: [6]
68.8 µM: [7]
37.9 µM: [10]
57.7 µM: [2]
31.3 µM: [11] | [16]

CCOC(=O)c1nc2ccc(C(F)(F)F)cc2[nH]c1=O
not listed: [9] | [15]
> 100 µM: all other assays above
